{
  "source": "ChEMBL document CHEMBL1255452",
  "about": "“Skin concentrations and pharmacokinetics of posaconazole after oral administration” (Antimicrob Agents Chemother, 2010)",
  "key": {"[1]": {"experiment": "Cmax in high fat fed healthy human skin at 400 mg, po bid after 1 day", "format": "ADME, organism-based, Zone of skin", "design": "dose 400 mg, route oral"}, "[2]": {"experiment": "Cmax in high fat fed healthy human skin at 400 mg, po bid after 8 days", "format": "ADME, organism-based, Zone of skin", "design": "dose 400 mg, route oral"}, "[3]": {"experiment": "AUC (0 to 12 hrs) in high fat fed healthy human plasma measured per ml of plasma at 400 mg, po bid after 1 day", "format": "ADME, organism-based", "design": "dose 400 mg, time < 12 hr, route oral"}, "[4]": {"experiment": "AUC (0 to 12 hrs) in high fat fed healthy human plasma measured per ml of plasma at 400 mg, po bid after 8 days", "format": "ADME, organism-based", "design": "dose 400 mg, time < 12 hr, route oral"}, "Zone of skin [5]": {"test_system": "Zone of skin", "experiment": "AUC (0 to 12 hrs) in high fat fed healthy human skin measured per gram of tissue at 400 mg, po bid after 1 day", "format": "ADME, organism-based", "design": "dose 400 mg, time < 12 hr, route oral", "conditions": "in vivo"}, "Zone of skin [6]": {"test_system": "Zone of skin", "experiment": "AUC (0 to 12 hrs) in high fat fed healthy human skin measured per gram of tissue at 400 mg, po bid after 8 days", "format": "ADME, organism-based", "design": "time < 12 hr, dose 400 mg, route oral", "conditions": "in vivo"}, "[7]": {"experiment": "AUC (0 to 24 hrs) in high fat fed healthy human plasma measured per ml of plasma at 400 mg, po bid after 1 day", "format": "ADME, organism-based", "design": "time < 24 hr, dose 400 mg, route oral"}, "[8]": {"experiment": "AUC (0 to 24 hrs) in high fat fed healthy human plasma measured per ml of plasma at 400 mg, po bid after 8 days", "format": "ADME, organism-based", "design": "time < 24 hr, dose 400 mg, route oral"}, "Zone of skin [9]": {"test_system": "Zone of skin", "experiment": "AUC (0 to 24 hrs) in high fat fed healthy human skin measured per gram of tissue at 400 mg, po bid after 1 day", "format": "ADME, organism-based", "design": "dose 400 mg, time < 24 hr, route oral", "conditions": "in vivo"}, "Zone of skin [10]": {"test_system": "Zone of skin", "experiment": "AUC (0 to 24 hrs) in high fat fed healthy human skin measured per gram of tissue at 400 mg, po bid after 8 days", "format": "ADME, organism-based", "design": "dose 400 mg, time < 24 hr, route oral", "conditions": "in vivo"}, "[11]": {"experiment": "T>MIC90 in fungus infected patient plasma at 400 mg, po bid after 1 day", "format": "functional"}, "[12]": {"experiment": "T>MIC90 in fungus infected patient plasma at 400 mg, po bid after 8 days", "format": "functional"}, "[13]": {"experiment": "T>MIC90 in fungus infected patient skin at 400 mg, po bid after 1 day", "format": "functional"}, "[14]": {"experiment": "T>MIC90 in fungus infected patient skin at 400 mg, po bid after 8 days", "format": "functional"}, "Homo sapiens [15]": {"test_system": "Homo sapiens", "experiment": "Toxicity in healthy human assessed as treatment-emergent adverse events at 400 mg, po bid after 8 days", "format": "organism-based", "conditions": "in vivo, 192 h"}, "Homo sapiens [16]": {"test_system": "Homo sapiens", "experiment": "Toxicity in healthy human assessed as treatment related treatment-emergent adverse events at 400 mg, po bid after 8 days", "format": "organism-based", "conditions": "in vivo, 192 h"}, "[17]": {"experiment": "Ratio of AUC in skin to plasma in healthy human at 400 mg, po bid after 8 days", "format": "ADME, organism-based, Skin of body", "conditions": "skin and plasma"}, "[18]": {"experiment": "Tmax in high fat fed healthy human plasma at 400 mg, po bid after 1 day", "format": "ADME, organism-based"}, "[19]": {"experiment": "Tmax in high fat fed healthy human skin at 400 mg, po bid after 1 day", "format": "ADME, organism-based, Zone of skin"}, "[20]": {"experiment": "Tmax in high fat fed healthy human skin at 400 mg, po bid after 8 days", "format": "ADME, organism-based, Zone of skin"}, "[21]": {"experiment": "Cmax in high fat fed healthy human plasma at 400 mg, po bid after 1 day", "format": "ADME, organism-based", "design": "dose 400 mg, route oral"}, "[22]": {"experiment": "Cmax in high fat fed healthy human plasma at 400 mg, po bid after 8 days", "format": "ADME, organism-based", "design": "dose 400 mg, route oral"}},
  "data": [
    {"smiles": "CC[C@@H]([C@H](C)O)n1ncn(-c2ccc(N3CCN(c4ccc(OC[C@@H]5CO[C@@](Cn6cncn6)(c6ccc(F)cc6F)C5)cc4)CC3)cc2)c1=O", "note": "[POSACONAZOLE]", "values": [
      {"measurement": "Cmax", "setting": "[1]", "result": 328, "unit": "ng/g"},
      {"measurement": "Cmax", "setting": "[2]", "result": 2610, "unit": "ng/g"},
      {"measurement": "AUC at 12 h", "setting": "[3]", "result": 3630, "unit": "ng·h/mL"},
      {"measurement": "AUC at 12 h", "setting": "[4]", "result": 18600, "unit": "ng·h/mL"},
      {"measurement": "AUC", "setting": "Zone of skin [5]", "result": 1760, "unit": "ng·h/g"},
      {"measurement": "AUC", "setting": "Zone of skin [6]", "result": 23400, "unit": "ng·h/g"},
      {"measurement": "AUC at 24 h", "setting": "[7]", "result": 7260, "unit": "ng·h/mL"},
      {"measurement": "AUC at 24 h", "setting": "[8]", "result": 37200, "unit": "ng·h/mL"},
      {"measurement": "AUC", "setting": "Zone of skin [9]", "result": 3520, "unit": "ng·h/g"},
      {"measurement": "AUC", "setting": "Zone of skin [10]", "result": 46800, "unit": "ng·h/g"},
      {"measurement": "T>MIC90", "setting": "[11]", "result": 8.13, "unit": "h"},
      {"measurement": "T>MIC90", "setting": "[12]", "result": 12, "unit": "h"},
      {"measurement": "T>MIC90", "setting": "[13]", "result": 2.24, "unit": "h"},
      {"measurement": "T>MIC90", "setting": "[14]", "result": 12, "unit": "h"},
      {"measurement": "Activity", "setting": "Homo sapiens [15]", "result": 57, "unit": "%"},
      {"measurement": "Activity", "setting": "Homo sapiens [16]", "result": 37, "unit": "%"},
      {"measurement": "Kp at 192 h", "setting": "[17]", "result": 1.26},
      {"measurement": "Tmax", "setting": "[18]", "result": 8, "unit": "h"},
      {"measurement": "Tmax", "setting": "[19]", "result": 12, "unit": "h"},
      {"measurement": "Tmax", "setting": "[20]", "result": 3, "unit": "h"},
      {"measurement": "Cmax", "setting": "[21]", "result": 453, "unit": "ng/mL"},
      {"measurement": "Cmax", "setting": "[22]", "result": 1740, "unit": "ng/mL"}
    ]}
  ]
}
